Tested on: mesothelioma
Test: Treatment of human mesothelioma patients with cisplatin with or without folic acid
Format: in vivo
Settings: human patients exhibiting mesothelioma; 75-120 mg/m^2 of cisplatin

Compound: N.N.[Cl][Pt][Cl] [cisplatin, cis-diamminedichloroplatinum]
- median survival time: 7.2 months
- response rate: 8.5%
